Measurements: patent US10604509B2, “Nrf2 regulators” (GlaxoSmithKline Intellectual Property Development Limited, priority 2015, dated 2020)
Where a name gives a salt, the structure may show the parent alone.

These compounds were tested on NQO1 specific enzyme activity in BEAS-2B cells (assay: BEAS-2B NQO1 MTT assay). Details: BEAS-2B cells, 48 hours with compound, MTT readout; read-out: EC50 of NQO1 specific activity induction.
Assay type: cell-based
Description: NAD(P)H:quinone oxidoreductase 1 (NQO1), also called DT diaphorase, is a homodimeric FAD-containing enzyme that catalyzes obligatory NAD(P)H-dependent two-electron reductions of quinones and protects cells against the toxic and neoplastic effects of free radicals and reactive oxygen species arising from one-electron reductions. The transcription of NQO1 is finely regulated by NRF2, and thus NQO1 activity is a good marker for NRF2 activation. On day one, frozen BEAS-2B cells (ATCC) are thawed in a water bath, counted, and re-suspended at a concentration of 250,000 cells/mL. Fifty microliters of cells are plated in 384 well black clear-bottomed plates. Plates are incubated at 37° C., 5% CO2 overnight. On day two, plates are centrifuged and 50 nL of compound or controls are added to the cells. Plates are then incubated at 37° C., 5% CO2 for 48 hours. On day four, medium is aspirated from the plate and crude cell lysates are made by adding 13 uL of 1× Cell Signaling Technologies lysis buffer with 1 Complete, Mini, EDTA-free Protease Inhibitor Tablet (Roche) for each 10 mL of lysis buffer. After lysis plates are incubated for 20 minutes at room temperature. Two microliters of lysate are removed for use in Cell Titer Glo assay (Promega) and MTT cocktail is prepared (Prochaska et. al. 1998) for measurement of NQO1 activity. Fifty microliters of MTT cocktail is added to each well, plate is centrifuged, and analyzed on an Envision plate reader (Perkin Elmer) using Absorbance 570 nm label for 30 minutes. Product formation is measured kinetically and the EC50 of NQO1 specific activity induction is calculated by plotting the change in absorbance (Delta OD/min) versus the log of compound concentration followed by 3-parameter fitting.

Row | SMILES | EC50
1 | Cc1ccc(C(CC(=O)O)c2ccc3c(nnn3C)c2C)cc1CN1Cc2ccc(C#N)cc2OC(C)(C)C1 (single isomer, unassigned) [Example 174] | 10 to 100 nM
2 | Cc1ccc([C@@H](CC(=O)O)c2ccc3c(nnn3C)c2C)cc1CN1CCCC(n2cccn2)C1 (single isomer, unassigned; isomer 2) [Example 158] | 1000 to 10000 nM
3 | CCCn1cc(CCC(c2ccc(C)c(Cn3ccnc3CN3CCC(CC)CC3)c2)C(C)(C)C(=O)O)nn1 (single isomer, unassigned) [Example 248, 3-(3-((2-((4-ethylpiperidin-1-yl)methyl)-1H-imidazol-1-yl)methyl)-4-methylphenyl)-2,2-dimethyl-5-(1-propyl-1H-1,2,3-triazol-4-yl)pentanoic Acid] | 10 to 100 nM

Same assay, conditions: Homo sapiens, BEAS-2B, 48 h, BEAS-2B cells, 48 hours with compound, MTT readout; read-out: EC50 of NQO1 specific activity induction

Row | SMILES | EC50
4 | COc1cc(C(CC(=O)O)c2ccc(Cl)c(CN3CCCC(n4cccn4)C3)c2)c(C)c2nnn(C)c12 (stereo not shown) [Example 164, 3-(3-((3-(1H-pyrazol-1-yl)piperidin-1-yl)methyl)-4-chlorophenyl)-3-(7-methoxy-1,4-dimethyl-1H-benzo[d][1,2,3]triazol-5-yl)propanoic Acid, Formic Acid Salt] | 100 to 1000 nM
5 | Cc1ccc(C(CC(=O)O)c2ccc3c(nnn3C)c2C)cc1CN1Cc2ccccc2OC2(CC2)C1 (stereo not shown) [Example 243, 3-(3-((3H-Spiro[benzo[f][1,4]oxazepine-2,1′-cyclopropan]-4(5H)-yl)methyl)-4-methylphenyl)-3-(1,4-dimethyl-1H-benzo[d][1,2,3]triazol-5-yl)propanoic Acid] | 100 to 1000 nM
6 | CC[C@@H]1CN(Cc2cc(C(c3ccc4c(nnn4C)c3C)C(C)(C)C(=O)O)ccc2C)Cc2cccnc2O1 (stereo partly drawn) [Example 113, 3-(1,4-Dimethyl-1H-benzo[d][1,2,3]triazol-5-yl)-3-(3-(((R)-2-ethyl-2,3-dihydropyrido[3,2-f][1,4]oxazepin-4(5H)-yl)methyl)-4-methylphenyl)-2,2-dimethylpropanoic Acid] | 100 to 1000 nM
7 | CC[C@@H]1CN(Cc2cc(C(CCc3cn(CC)nn3)CC(=O)O)ccc2C)Cc2cnccc2O1 (stereo partly drawn) [Example 232, 5-(1-Ethyl-1H-1,2,3-triazol-4-yl)-3-(3-(((R)-2-ethyl-2,3-dihydropyrido[3,4-f][1,4]oxazepin-4(5H)-yl)methyl)-4-methylphenyl)pentanoic Acid] | 100 to 1000 nM
8 | CCn1nnc2c(C)c([C@@H](c3ccc(C)c(CN4Cc5ccccc5OC(C)(C)C4)c3)[C@H](C)C(=O)O)ccc21 [Example 200, (2S,3R)-3-(3-((2,2-Dimethyl-2,3-dihydrobenzo[f][1,4]oxazepin-4(5H)-yl)methyl)-4-methylphenyl)-3-(1-ethyl-4-methyl-1H-benzo[d][1,2,3]triazol-5-yl)-2-methylpropanoic Acid, 2 Trifluoroacetic Acid Salt] | 10 to 100 nM
9 | CCn1nnc2c(C)c([C@H](c3ccc(C)c(CN4Cc5cnccc5OC(C)(C)C4)c3)[C@@H](C)C(=O)O)cc(Cl)c21 [Example 209, (2R,3S)-3-(7-Chloro-1-ethyl-4-methyl-1H-benzo[d][1,2,3]triazol-5-yl)-3-(3-((2,2-dimethyl-2,3-dihydropyrido[3,4-f][1,4]oxazepin-4(5H)-yl)methyl)-4-methylphenyl)-2-methylpropanoic Acid] | 1 to 10 nM
10 | Cc1ccc(C(CC(=O)O)c2ccc3c(nnn3C)c2C)cc1Cn1nc(CC2CCCCC2)nc1C (stereo not shown) [Example 137, 3-(3-((3-(Cyclohexylmethyl)-5-methyl-1H-1,2,4-triazol-1-yl)methyl)-4-methylphenyl)-3-(1,4-dimethyl-1H-benzo[d][1,2,3]triazol-5-yl)propanoic Acid] | 100 to 1000 nM
11 | CCn1cc(CCC(c2ccc(C)c(CN3Cc4ncccc4OC(C)(C)C3)c2)C(C)(C)C(=O)O)nn1 (stereo not shown) [Example 221, 3-(3-((2,2-Dimethyl-2,3-dihydropyrido[2,3-f][1,4]oxazepin-4(5H)-yl)methyl)-4-methylphenyl)-5-(1-ethyl-1H-1,2,3-triazol-4-yl)-2,2-dimethylpentanoic Acid] | 10 to 100 nM
12 | Cc1c(C(CC(=O)O)c2ccc(Cl)c(CN3Cc4ncccc4OC(C)(C)C3)c2)ccc2c1nnn2C (single isomer, unassigned; isomer 1) [Example 262] | 10 to 100 nM
13 | Cc1ccc(C(CC(=O)O)c2ccc3c(nnn3C)c2C)cc1CN1Cc2ccccc2OC(C)C1 (stereo not shown) [Example 3, trifluoroacetic Acid Salt] | 1000 to 10000 nM
14 | Cc1ccc(C(CC(=O)O)c2ccc3c(nnn3C)c2C)cc1CN1Cc2ccccc2OC(C)(C)C1 (stereo not shown) [Example 89, 3-(1,4-Diemthyl-1H-benzo[d][1,2,3]triazol-5-yl)-3-(3-((2,2-dimethyl-2,3-dihydrobenzo[f][1,4]oxazepin-4(5H)-yl)methyl)-4-methylphenyl)propanoic acid] | 10 to 100 nM
15 | Cc1ccc([C@H](CC(=O)O)c2ccc3c(nnn3C)c2C)cc1CN1CCCC(n2cccn2)C1 (single isomer, unassigned) [compound 159] | 1000 to 10000 nM
16 | Cc1ccc([C@@H](c2ccc3c(nnn3C)c2C)C(C)(C)C(=O)O)cc1Cn1ccnc1CC1CCCCCC1 [Example 235, (S)-3-(3-((2-(Cycloheptylmethyl)-1H-imidazol-1-yl)methyl)-4-methylphenyl)-3-(1,4-dimethyl-1H-benzo[d][1,2,3]triazol-5-yl)-2,2-dimethylpropanoic Acid] | < 1 nM
17 | COc1ccc2c(c1)OC(C)(C)CN(Cc1cc([C@@H](CC(=O)O)c3ccc4c(nnn4C)c3C)ccc1C)C2 [Example 167, (R)-3-(1,4-Dimethyl-1H-benzo[d][1,2,3]triazol-5-yl)-3-(3-((8-methoxy-2,2-dimethyl-2,3-dihydrobenzo[f][1,4]oxazepin-4(5H)-yl)methyl)-4-methylphenyl)propanoic acid] | 10 to 100 nM
18 | CC[C@@H]1CN(Cc2nc(C(c3ccc4c(nnn4C)c3C)C(C)(C)C(=O)O)ccc2C)Cc2cnccc2O1 (stereo partly drawn) [Example 212, 3-(1,4-Dimethyl-1H-benzo[d][1,2,3]triazol-5-yl)-3-(6-(((R)-2-ethyl-2,3-dihydropyrido[3,4-f][1,4]oxazepin-4(5H)-yl)methyl)-5-methylpyridin-2-yl)-2,2-dimethylpropanoic Acid, Formic Acid Salt] | 10 to 100 nM
19 | CC[C@@H]1CN(Cc2cc(C(CC(=O)O)c3ncc4c(nnn4C)c3C)ccc2C)Cc2ccccc2O1 (stereo partly drawn) [Example 48, 3-(3,7-Dimethyl-3H-[1,2,3]triazolo[4,5-c]pyridin-6-yl)-3-(3-(((R)-2-ethyl-2,3-dihydrobenzo[f][1,4]oxazepin-4(5H)-yl)methyl)-4-methylphenyl)propanoic Acid, Trifluoroacetic Acid Salt] | 100 to 1000 nM
20 | Cc1ccc(C(CC(=O)O)c2ccc3c(nnn3C)c2C)cc1Cn1ccnc1CC1CCCCCC1 (stereo not shown) [Example 146, 3-(3-((2-(Cycloheptylmethyl)-1H-imidazol-1-yl)methyl)-4-methylphenyl)-3-(1,4-dimethyl-1H-benzo[d][1,2,3]triazol-5-yl)propanoic acid, formic acid salt] | 10 to 100 nM
21 | Cc1ccc(C(CC(=O)O)c2ccc3c(nnn3C)c2C)cc1CN1CCc2cnc(C(C)C)nc2C1 (stereo not shown) [Example 11, Ammonium 3-(1,4-dimethyl-1H-benzo[d][1,2,3]triazol-5-yl)-3-(3-((2-isopropyl-5,6-dihydropyrido[3,4-d]pyrimidin-7(8H)-yl)methyl)-4-methylphenyl)propanoate] | 1000 to 10000 nM
22 | Cc1ccc([C@H](CC(=O)O)c2ccc3c(nnn3C)c2C)cc1CN1Cc2cc(F)ccc2OC(C)(C)C1 [Example 62, (S)-3-(1,4-Dimethyl-1H-benzo[d][1,2,3]triazol-5-yl)-3-(3-((7-fluoro-2,2-dimethyl-2,3-dihydrobenzo[f][1,4]oxazepin-4(5H)-yl)methyl)-4-methylphenyl)propanoic acid, 1.5formic acid salt] | 10 to 100 nM
23 | Cc1ccc(C(CC(=O)O)c2ccc3c(nnn3C)c2C)cc1Cn1ccnc1CN1CCC(F)(F)CC1 (stereo not shown) [Example 149, 3-(3-((2-((4,4-Difluoropiperidin-1-yl)methyl)-1H-imidazol-1-yl)methyl)-4-methylphenyl)-3-(1,4-dimethyl-1H-benzo[d][1,2,3]triazol-5-yl)propanoic acid] | 100 to 1000 nM
24 | CC[C@@H]1CN(Cc2cc([C@@H](c3ccc4c(nnn4C)c3C)[C@@H](C)C(=O)O)ccc2C)Cc2ccccc2O1 [Example 38, (2R,3S)-3-(1,4-dimethyl-1H-benzo[d][1,2,3]triazol-5-yl)-3-(3-(((R)-2-ethyl-2,3-dihydrobenzo[f][1,4]oxazepin-4(5H)-yl)methyl)-4-methylphenyl)-2-methylpropanoic Acid, Formic Acid Salt] | 10 to 100 nM
25 | Cc1ccc([C@H](CC(=O)O)c2ccc3c(nnn3C)c2C)cc1CN1Cc2cccc(F)c2OC(C)(C)C1 [Example 178, (S)-3-(1,4-Dimethyl-1H-benzo[d][1,2,3]triazol-5-yl)-3-(3-((9-fluoro-2,2-dimethyl-2,3-dihydrobenzo[f][1,4]oxazepin-4(5H)-yl)methyl)-4-methylphenyl)propanoic acid] | 10 to 100 nM
